Data taken from patent US20250276996A1, “CATIONICALLY-ENFRAMED HIGH DENSITY AROMATIC PEPTIDES” (Research Foundation of the City University of New York, priority 2022, published 2025).
Where “and” joins values, the source holds several entries; their conditions need not be identical. Equal values may be shown once. Entries after “also recorded” stand apart in the source; their conditions may differ. Non-standard residues stand in square brackets, D forms with d. Residues, ends and D or L forms follow the SMILES beside them. *: point of attachment. Biotin = O=C1N[C@H]2[C@H](CS[C@H]2CCCCC(=O)*)N1

Columns and labels:
[1] = system: retinal ganglion cells (RGCs); test: Optic nerve crush (ONC), retinal ganglion cell survival; format: in vivo, C57BL/6 mice; conditions: for Average density of retinal ganglion cells: 3 mg/kg IP daily 14 days
Excerpt: Quantification of Retinal Ganglion Cell Survival: To test whether the protective effects of biotin-HDAP2 in serum-starved cultured cells extended to neurons in vivo, the survival of RGCs following optic nerve crush (ONC) in the presence and absence of the peptide was studied. To control for density differences of RGCs across the retina, values were standardized by comparing ratios of RBPMS-labeled RGCs with the densities of starburst amacrine cells labeled by choline acetyltransferase (ChAT). Starburst amacrine cells, like other displaced amacrine cells, are unaffected by ONC in the short-term. In control tissue, displaced starburst amacrine cells accounted for about […] of cells in the ganglion cell layer and ratios of RBPMS labeled cells to ChAT neurons was about 4 to 1 in central retina and 3 to 1 at other eccentricities (FIG. 11B).
Optic Nerve Crush Procedure: Adult mice (2-6 mo.) were anesthetized with a cocktail of ketamine (85 mg/kg) and xylazine (20 mg/kg) (IP), the corneas were numbed with a drop of 0.5% proparacaine hydrochloride ophthalmic solution (Falcon Pharmaceuticals), and the animals were positioned under a Nikon dissecting microscope, dorsolaterally either on the left or right sides. The dorsomedial conjunctiva was cut with microdissection spring scissors, the […] muscles were separated, and the eyeball was slightly retracted to expose the optic nerve. Fine, self-closing forceps (Roboz, RS-5027) were used to clamp the optic nerve 1-2 mm behind the globe, for approximately 3 seconds without applying additional tension. The eye was repositioned within the orbit, the conjunctiva reflected over the extraocular eye muscles and the incision covered with ophthalmic polymyxin B-neomycin-bacitracin ointment (3.5 mg/gm, Bausch and Lomb). The optic nerves from the contralateral eye were untouched and used as untreated controls. Following the crush procedure, mice were given a subcutaneous injection of extended-release buprenorphine (0.05 mg/kg, Ethiqua XR) for analgesia and placed on a heating pad until awake and grooming, at which point they were returned to their home cages. Half the animals were given biotin-HDAP2 immediately following the procedure and then daily thereafter (3 mg/kg, IP) for 14 days.
Immunohistochemistry: Fixed retinas were labeled with cell markers using conventional immunohistochemical protocols to identify cells and structures associated with biotin-HDAP2, and to identify retinal ganglion cells and starburst amacrine cells to assess cell survival following optic nerve crush. Retinas and sections were blocked and permeabilized with 4% normal donkey serum in 0.1M Tris or phosphate buffers with 0.5% Triton-X for 1 hour and then incubated overnight (for sections) or for 3 days (for wholemounts) at 4° C. in selected primary antibodies, and 2% normal donkey serum in the same buffer. The tissue was rinsed 3×10 minutes with buffer and then incubated with secondary antibodies for one hour at room temperature (sections) or overnight at 4° C. for wholemounts. Antibodies and markers used were rabbit anti-RBPMS (1:200; Invitrogen, PA5-31231) to label all retinal ganglion cells; goat anti-choline acetyltransferase (ChAT 1:100; EMD Millipore, AB144P) to label starburst amacrine cells; rabbit anti-glutamine synthetase (1:200; Invitrogen, PA1-46165) to label Müller cells; and rabbit anti-cox4 (1:200; Invitrogen, PA5-29992) to identify mitochondria. Secondary antibodies were raised in donkey and conjugated with either Alexa Fluor 488, 594 or 647 (1:500, Life Sciences). To identify the distribution of cell nuclei, and to delineate retinal layers, tissue was labeled with the nuclear stain ToPro3 (1:1000; Invitrogen) for 15 minutes. After staining, sections and retinas were rinsed in buffer and coverslipped in Vectashield mounting media (Vector Labs) to prevent photobleaching. […]

MDBK cells [2] = test: Cellular oxidative stress in serum-starved cells (CM-H2DCFDA); format: cell-based, bovine; conditions: 1 μM
Description: (§1) MDBK cells incubated in serum free media for 5-7 days in the presence or absence of 1 μM of biotin-HDAP2. At the end of the incubation period, 100 nM CM-H2DCFDA (oxidative stress marker) was added to the cells and incubated for 30 minutes. Then, media was removed and cells were fixed in 4% PFA. Cells were then visualized using a fluorescent microscope (Nikon Eclipse-ci-SRS). Experiments were conducted 5 times in triplicate for each experimental condition.
To measure the effects of biotin-HDAP2 on the mitochondrial potential and cellular oxidative stress, cells were cultured in DMEM/F12 without fetal bovine serum (FSB) in the presence or absence of biotin-HDAP2 (1 μM). […]
Unless otherwise noted, data for all tissue culture experiments were collected from three independent trials, with each experiment done in triplicate. […] Photooxidation of the indicator dyes were minimized by using single exposures to the fluorescence for each field imaged. Fluorescence intensity was analyzed using ImageJ (NIH), and MTR and CM-H2DCFDA fluorescence were normalized to Hoechst fluorescence to account for differences in cell number in each field. […] All data are expressed as means±SEM.

MDBK cells [3] = test: Serum starvation cell death, methylene blue staining; format: cell-based, bovine; conditions: serum-free media 5-7 days, read-out: EC50, prevention of cell death
Description: MDBK cells were incubated in serum-free media for 5-7 days in the presence or absence of different concentrations of biotin-HDAP2. At the end of the incubation period, media was removed, the cells were fixed in 4% PFA and then stained with Methylene Blue Loeffler for 30 minutes. Images were obtained using a Tiffen Zoom Camera, interfaced with PC Image, and analyzed using ImageJ NIH software. Experiments were conducted 5 times in triplicates for each experimental condition. Biotin-HDAP2 prevented cell death in a dose-dependent manner with EC50 of about 300 nM (FIG. 4).

MDBK cells [4] = test: Mitochondrial membrane potential in serum-starved cells (MitoTracker Red); format: cell-based, bovine
Description: as §1, with “period” for “period,”, “MitoTracker” for “CM-H2DCFDA (oxidative stress marker)”, “15” for “30”
To measure the effects of biotin-HDAP2 on the mitochondrial potential and cellular oxidative stress, cells were cultured in DMEM/F12 without fetal bovine serum (FSB) in the presence or absence of biotin-HDAP2 (1 μM). After 3 days, nuclei were labeled with Hoechst 33342 (10 μg/ml) and cells were incubated for 15 minutes at 37° C. with MTR (100 nM) to evaluate the strength of the mitochondrial potential or were incubated with the general oxidative stress indicator CM-H2DCFDA (5 μM, Invitrogen, Carlsbad, CA) for 15 min at 37° C. In each instance, cells were imaged immediately after staining and prior to fixation.
Unless otherwise noted, data for all tissue culture experiments were collected from three independent trials, with each experiment done in triplicate. For each experiment, 4-6 fields of cells were randomly selected and imaged using a Nikon Eclipse 50i fluorescent microscope with a 40X immersion objective (NA 0.8) and using filters specific for either green or red wavelengths as appropriate (ex488 nm/ex515-540 nm). Photooxidation of the indicator dyes were minimized by using single exposures to the fluorescence for each field imaged. Fluorescence intensity was analyzed using ImageJ (NIH), and MTR and CM-H2DCFDA fluorescence were normalized to Hoechst fluorescence to account for differences in cell number in each field. Differences among groups were compared by Student's t-test and P values less than 0.05 were considered significant. All data are expressed as means±SEM.

For `N=C(N)NCCC[C@@H](NC(=O)[C@H](Cc1ccccc1)NC(=O)[C@H](Cc1ccccc1)NC(=O)[C@@H](CCCNC(=N)N)NC(=O)CCCC[C@@H]1SC[C@@H]2NC(=O)N[C@@H]21)C(N)=O` [biotin-HDAP2, Biotin-dArg-Phe-Phe-dArg-NH2] (Biotin-[dR]FF[dR]-NH2), the “protection of retinal ganglion cells following optic nerve crush” value ([1]; 3 mg/kg) was “protected retinal ganglion cells following optic nerve crush; also recorded: significantly greater survival of retinal ganglion cells”, the “Average density of retinal ganglion cells” value (shortened to “Average density”) ([1]; Central, ONC) was 446.1 ± 42.92 cells/mm2 and the “Average density” value ([1]; Midperipheral, ONC) was 694.5 ± 52.61 cells/mm2. For the same molecule, the “expression of RBPMS compared to untreated” value ([1]; ONC) was “doubled”, the “ratio of RGCs to ChAT cells (to 1)” value ([1]; ONC, treated) was 0.70 and the “more RBPMS labeled cells than untreated animals” value ([1]; ONC, treated daily) was 40%. For the same molecule, the “expression of RBPMS (mean pixel intensity)” value ([1]; ONC, treated, n=23) was 9.8±0.78 arbitrary fluorescence units, the “survival of retinal ganglion cells greater compared to untreated controls” value ([1]; ONC, intraperitoneal or subcutaneous administration) was 50% and the “Average density” value ([1]; Peripheral, ONC) was 565.4 ± 53.61 cells/mm2. For the same molecule, the “percent increase in RBPMS labeled cells vs untreated ONC” value (“percent increase in RBPMS labeled cells” for short) ([1]; central retina) was 18%, the “percent increase in RBPMS labeled cells” value ([1]; midperipheral retina) was 38% and the “percent increase in RBPMS labeled cells” value ([1]; periphery) was 50%. For the same molecule, the “oxidative stress in starved cells” value (MDBK cells [2]; serum free 5-7 days, 100 nM CM-H2DCFDA) was “prevented oxidative stress in starved cells”, the “reduction in CM-H2DCFDA fluorescence compared to control” value (MDBK cells [2]; serum-free) was > 80% and 80% and the EC50 (MDBK cells [3]) was ~300 nM. The “mitochondria membrane potential in starved cells” value (MDBK cells [4]; 1 μM, serum free 5-7 days, 100 nM MitoTracker) was “improved mitochondria membrane potential in starved cells”, the “increase of MitoTracker Red CMXRos fluorescence intensity vs untreated controls” value (MDBK cells [4]; 1 μM, serum starvation) was “over 2.5 times” and the “increase of mitochondrial membrane potential compared to serum-free control” value (MDBK cells [4]; 1 μM, serum-free 3-4 days) was 150%. The “improvement of mitochondrial potential” value (MDBK cells [4]; FIG. 10D) was 2.5 fold.
